Reference: patent US6875761B2 (Eisai Co., Ltd., priority 1997, dated 2005)
Counter-ions that a name gives are not always drawn.

Q: With CCN1CCN(c2nc(-c3cc(F)c(OCCOC)c(F)c3)cc3ccccc23)CC1 (as salt: hydrochloride) [Example 368, 1-(4-ethylpiperazin-1-yl)-3-(3,5-difluoro-4-methoxyethoxyphenyl)isoquinoline dihydrochloride] as the compound, how does the melting point read?
A: 110 to 112 °C

Q: Which melting point does the source give for CCN1CCN(c2nc(-c3ccc(OCCO)c(F)c3)cc3ccccc23)CC1 (as salt: hydrochloride) [Example 369, 1-(4-ethylpiperazin-1-yl)-3-[3-fluoro-4-(2-hydroxyethoxy)phenyl]isoquinoline dihydrochloride] here?
A: 119 to 120 °C

Q: With CCN1CCN(c2nc(-c3cc(F)c(OCCO)c(F)c3)cc3ccccc23)CC1 (as salt: hydrochloride) [Example 370, 1-(4-ethylpiperazin-1-yl)-3-[3,5-difluoro-4-(2-hydroxyethoxy)phenyl]isoquinoline] as the compound, how does the melting point read?
A: 112.5 to 114 °C

Q: With CCN1CCN(c2nc(-c3cc(F)c(OCCF)c(F)c3)cc3ccccc23)CC1 (as salt: hydrochloride) [Example 371, 1-(4-ethylpiperazin-1-yl)-3-[3,5-difluoro-4-(2-fluoroethoxy)phenyl]isoquinoline dihydrochloride] as the compound, how does the melting point read?
A: 105 to 105.5 °C

Q: With CCN1CCN(c2nc(-c3ccc(CC(C)=O)cc3)cc3ccccc23)CC1 (as salt: hydrochloride) [Example 375, 1-(4-ethylpiperazin-1-yl)-3-[4-(2-oxopropyl)phenyl]isoquinoline dihydrochloride] as the compound, how does the melting point read?
A: 125 to 126 °C

Q: With CCCNC(=O)c1ccc(-c2cc3ccccc3c(N3CCN(CC)CC3)n2)cc1F (as salt: hydrochloride) [Example 384, 1-(4-Ethylpiperazin-1-yl)-3-[4-(N-Propylcarbamoyl)-3-Fluorophenyl]Isoquinoline Dihydrochloride] as the compound, how does the melting point read?
A: 124 to 125 °C (dec.)

Q: With CCN1CCN(c2nc(-c3ccc(CCO)c(F)c3)cc3ccccc23)CC1 (as salt: hydrochloride) [Example 385, 1-(4-Ethylpiperazin-1-yl)-3-[3-Fluoro-4-(2-Hydroxyethyl)Phenyl]Isoquinoline Dihydrochloride] as the compound, how does the melting point read?
A: 213 to 215 °C (dec.)

Q: For CCN1CCN(c2nc(-c3ccc(C(O)CO)cc3)cc3ccccc23)CC1 (centres unmarked) (as salt: hydrochloride) [Example 387, 1-(4-Ethylpiperazin-1-yl)-3-[4-(1,2-Dihydroxyethyl)Phenyl]Isoquinoline Dihydrochloride], which melting point is on record?
A: 132 to 133 °C

Q: Which melting point does the source give for CCN1CCN(c2nc(-c3ccc(CCC(C)(C)O)cc3)cc3ccccc23)CC1 (as salt: hydrochloride) [Example 388, 1-(4-Ethylpiperazin-1-yl)-3-[4-(3-Hydroxy-3-Methylbutyl)Phenyl]Isoquinoline Dihydrochloride] here?
A: 205 to 206 °C

Q: Which melting point does the source give for CCN1CCN(c2nc(-c3ccc(C(O)C(C)(C)CO)cc3)cc3ccccc23)CC1 (centres unmarked) (as salt: hydrochloride) [Example 391, 1-(4-Ethylpiperazin-1-yl)-3-[4-(1,3-Dihydroxy-2,2-Dimethylpropyl)Phenyl]Isoquinoline Dihydrochloride] here?
A: 150.5 to 151.5 °C

Q: Which melting point does the source give for CCN1CCN(c2nc(-c3ccc4c(c3)CC(CO)C4)cc3ccccc23)CC1 (centres unmarked) (as salt: hydrochloride) [Example 393, 1-(4-Ethylpiperazin-1-yl)-3-(2-Hydroxymethylindan-5-yl)Isoquinoline Dihydrochloride] here?
A: 136.5 to 138 °C

Q: With CCN1CCN(c2nc(-c3ccc(CO)c(CO)c3)cc3ccccc23)CC1 (as salt: hydrochloride) [Example 394, 1-(4-Ethylpiperazin-1-yl)-3-[(3,4-Dihydroxymethyl)Phenyl]Isoquinoline Dihydrochloride] as the compound, how does the melting point read?
A: 130.5 to 132 °C (dec.)

Q: For CCN1CCN(c2nc(-c3ccc(C4COCCO4)cc3)cc3ccccc23)CC1 (centres unmarked) (as salt: hydrochloride) [Example 395, 1-(4-Ethylpiperazin-1-yl)-3-[4-(1,4-Dioxan-2-yl)Phenyl]Isoquinoline Dihydrochloride], which melting point is on record?
A: 163 to 166 °C (dec.)

Q: For CCN1CCN(c2nc(-c3ccc(C4CCCO4)cc3)cc3ccccc23)CC1 (centres unmarked) (as salt: hydrochloride) [Example 396, 1-(4-Ethylpiperazin-1-yl)-3-[4-(Tetrahydrofuran-2-yl)Phenyl]Isoquinoline Dihydrochloride], which melting point is on record?
A: 129 to 130 °C

Q: For CCN1CCN(c2nc(-c3ccc([C@H]4CC[C@@H](O)CC4)cc3)cc3ccccc23)CC1 (as salt: hydrochloride) [Example 397, 1-(4-Ethylpiperazin-1-yl)-3-[4-(cis-4-Hydroxycyclohexyl)Phenyl]Isoquinoline Dihydrochloride], which melting point is on record?
A: 152 to 153 °C

Q: With CCN1CCN(c2nc(-c3ccc([C@H]4CC[C@H](O)CC4)cc3)cc3ccccc23)CC1 (as salt: hydrochloride) [Example 398, 1-(4-Ethylpiperazin-1-yl)-3-[4-(trans-4-Hydroxycyclohexyl)Phenyl]Isoquinoline Dihydrochloride] as the compound, how does the melting point read?
A: 157 to 158 °C (dec.)

Q: Which melting point does the source give for CCN1CCN(c2nc(-c3ccc(CC4CCOCC4)cc3)cc3ccccc23)CC1 (as salt: hydrochloride) [Example 399, 1-(4-Ethylpiperazin-1-yl)-3-[4-(tetrahydropyran-4-yl)Methylphenyl]Isoquinoline Dihydrochloride] here?
A: 182 to 184 °C (dec.)

Q: Which melting point does the source give for CCN1CCN(c2nc(-c3ccc(OC[C@@H](C)O)cc3)cc3ccccc23)CC1 (as salt: hydrochloride) [Example 403, 1-(4-ethylpiperazin-1-yl)-3-[4-(2-hydroxypropoxy)phenyl]isoquinoline Dihydrochloride] here?
A: 112 to 114 °C

Q: With CCN1CCN(c2nc(-c3ccc(O[C@@H](C)CO)cc3)cc3ccccc23)CC1 (as salt: hydrochloride) [Example 404, 1-(4-ethylpiperazin-1-yl)-3-[4-(2-hydroxy-1-methylethoxy)phenyl]isoquinoline Dihydrochloride] as the compound, how does the melting point read?
A: 128 to 129 °C

Q: With CCN1CCN(c2nc(-c3ccnc(OC)c3)cc3ccccc23)CC1 (as salt: hydrochloride) [Example 405, 1-(4-ethylpiperazin-1-yl)-3-(2-methoxypyridin-4-yl)isoquinoline] as the compound, how does the melting point read?
A: 174 to 176 °C

Q: Which melting point does the source give for CCN1CCN(c2nc(-c3ccnc(OCCOC)c3)cc3ccccc23)CC1 (as salt: hydrochloride) [Example 407, 1-(4-ethylpiperazin-1-yl)-3-[2-(2-methoxyethoxy)pyridin-4-yl]isoquinoline] here?
A: 139 to 140 °C

Q: For CCN1CCN(c2nc(-c3ccc(C(N)=O)cc3)cc3ccccc23)CC1 (as salt: hydrochloride) [Example 408, 1-(4-ethylpiperazin-1-yl)-3-(4-carbamoylphenyl)isoquinoline], which melting point is on record?
A: 197 to 199 °C

Q: Which melting point does the source give for CCN1CCN(c2nc(-c3ccc(C(O)C4CCCCC4)cc3)cc3ccccc23)CC1 (centres unmarked) (as salt: hydrochloride) [Example 409, 1-(4-ethylpiperazin-1-yl)-3-[4-(cyclohexylhydroxymethyl)phenyl]isoquinoline] here?
A: 153 to 155 °C

Q: With CCN1CCN(c2nc(-c3ccc(C(O)(c4nccs4)c4nccs4)cc3)cc3ccccc23)CC1 (as salt: hydrochloride) [Example 411, 1-(4-ethylpiperazin-1-yl)-3-{4-[bis(1,3-thiazol-2-yl)hydroxymethyl]phenyl}isoquinoline] as the compound, how does the melting point read?
A: 157 to 158 °C

Q: Which melting point does the source give for CCN1CCN(c2nc(-c3ccc4c(c3)CCC4=O)cc3ccccc23)CC1 (as salt: hydrochloride) [Example 414, 1-(4-ethylpiperazin-1-yl)-3-(1-indanon-5-yl)isoquinoline] here?
A: 233 °C (dec.)

Q: Which melting point does the source give for CCN1CCN(c2nc(-c3ccc(CCC(C)(C)O)c(F)c3)cc3ccccc23)CC1 (as salt: hydrochloride) [Example 416, 1-(4-ethylpiperazin-1-yl)-3-[4-(3-hydroxy-3-methylbutyl)-3-fluorophenyl]isoquinoline] here?
A: 206 to 207 °C

Q: For CCN1CCN(c2nc(-c3ccc(OCCO)c(C#N)c3)cc3ccccc23)CC1 (as salt: hydrochloride) [Example 417, 1-(4-ethylpiperazin-1-yl)-3-[3-cyano-4-(2-hydroxyethoxy)phenyl]isoquinoline], which melting point is on record?
A: 162 to 164 °C

Q: With CCN1CCN(c2nc(-c3cccc(CCCO)c3)cc3ccccc23)CC1 (as salt: hydrochloride) [Example 418, 1-(4-ethylpiperazin-1-yl)-3-[3-(3-hydroxypropyl)phenyl]isoquinoline] as the compound, how does the melting point read?
A: 101 to 103 °C

Q: Which melting point does the source give for CCN1CCN(c2nc(Cc3ccccc3)cc3ccccc23)CC1 (as salt: hydrochloride) [Example 419, 1-(4-ethylpiperazin-1-yl)-3-benzylisoquinoline] here?
A: 118 to 119 °C

Q: Which melting point does the source give for CCN1CCN(c2nc(NC(=O)c3ccccc3)cc3ccccc23)CC1 (as salt: hydrochloride) [Example 421, 3-benzamide-1-(4-ethylpiperazin-1-yl)isoquinoline] here?
A: 160 to 162 °C

Q: With CCN1CCN(c2nc(COc3ccc(OC)cc3)cc3ccccc23)CC1 (as salt: hydrochloride) [Example 424, 1-(4-ethylpiperazin-1-yl)-3-(4-methoxyphenoxymethyl)isoquinoline Hydrochloride] as the compound, how does the melting point read?
A: 101 to 102 °C

Q: Which melting point does the source give for CCN1CCN(c2nc(-c3ccc(OCCO)cc3OC)cc3ccccc23)CC1 (as salt: hydrochloride) [Example 425, 1-(4-ethylpiperazin-1-yl)-3-[4-(2-hydroxyethoxy)-2-methoxyphenyl]isoquinoline] here?
A: 140 to 142 °C

Q: For CCN1CCN(c2nc(-c3ccc(OC4CCCCC4O)cc3)cc3ccccc23)CC1 (centres unmarked) (as salt: hydrochloride) [Example 426, 1-(4-ethylpiperazin-1-yl)-3-[4-(2-hydroxycyclohexyloxy)phenyl]isoquinoline Hydrochloride], which melting point is on record?
A: 143 to 144 °C

Q: For CCN1CCN(c2nc(-c3ccc(OC)cc3)nc3ccccc23)CC1 (as salt: hydrochloride) [Example 427, 4-(4-ethylpiperazin-1-yl)-2-(4-methoxyphenyl)quinazoline Dihydrochloride], which melting point is on record?
A: 224.5 to 226 °C (dec.)

Q: Which melting point does the source give for CCN1CCN(c2nc(-c3ccc(OC)cc3)cc3ccncc23)CC1 (as salt: hydrochloride) [Example 428, 1-(4-ethylpiperazin-1-yl)-3-(4-methoxyphenyl)-7-azaisoquinoline] here?
A: 222 °C (dec.)
